ChEMBL document CHEMBL5705887, “Distinct concentration-dependent effects of the polo-like kinase 1-specific inhibitor GSK461364A, including differential effect on apoptosis” (Cancer Res, 2009)
Activity calls are given as the source filed them. The calls are words filed in the database; no cut-off is given here.

Experiments:
[1] = system: Panc 02.03; test: Antiproliferative activity against human Panc 02.03 cells assessed as of viable cell signal at minimum maximum cell growth incubated for 72 hrs by celltiter-glo assay relative to control; type: functional
[2] = system: MDA-MB-453; test: Antiproliferative activity against human MDA-MB-453 cells assessed as viable cell signal at maximum growth inhibition incubated for 72 hrs by celltiter-glo assay relative to control; type: functional
[3] = system: T47D; test: Antiproliferative activity against human T47D cells assessed as of viable cell signal at minimum maximum cell growth incubated for 72 hrs by celltiter-glo assay relative to control; type: functional
[4] = system: COLO 205; test: Antitumor activity against human COLO 205 cells xenografted in ip dosed Nude mouse assessed as increase in pIk1 level measured at 24 to 48 hrs by […]; type: functional, organism-based; settings: dose 50-100 mg/kg, time 24-48 hrs
[5] = system: SK-MEL-28; test: Antiproliferative activity against human SK-MEL-28 cells assessed as viable cell signal at maximum growth inhibition incubated for 72 hrs by celltiter-glo assay relative to control; type: functional
[6] = system: SK-MEL3; test: Antiproliferative activity against human SK-MEL3 cells assessed as viable cell signal at maximum growth inhibition incubated for 72 hrs by celltiter-glo assay relative to control; type: functional
[7] = system: Raji; test: Antiproliferative activity against human Raji cells assessed as of viable cell signal at minimum maximum cell growth incubated for 72 hrs by celltiter-glo assay relative to control; type: functional
[8] = system: ZR-75-1; test: Growth inhibition of human ZR-75-1 cells assessed as viable cells at 250 nmol/L measured immediately by celltiter-glo assay; type: functional; settings: read-out: Activity
[9] = system: Calu-1; test: Antiproliferative activity against human Calu-1 cells assessed as viable cell signal at maximum growth inhibition incubated for 72 hrs by celltiter-glo assay relative to control; type: functional
[10] = system: A549; test: Induction of mitotic arrest in human A549 cells assessed as effect on pHH3 level at 10 to 250 nmol/L incubated for 19 hrs by ELISA analysis; type: functional, cell-based; settings: dose 10-250 nmol/L
[11] = system: U2OS; test: Induction of mitotic arrest in human U2OS cells expressing fused cyclin B1-GFP at 10 to 250 nmol/L incubated for 24 hrs by image based analysis; type: functional, cell-based; settings: dose 10-250 nmol/L
[12] = target: Cyclin-dependent kinase 1/cyclin B1 (Homo sapiens) (UniProt P06493+P14635); test: Inhibition of C-terminal his6-tagged recombinant human CDK1/full length N-terminal GST-tagged recombinant human cyclin B expressed in baculovirus Sf21 insect cells at 10 uM relative to control
[13] = system: NCI-H727; test: Antiproliferative activity against human NCI-H727 cells assessed as viable cell signal at maximum growth inhibition incubated for 72 hrs by celltiter-glo assay relative to control; type: functional
[14] = target: Ribosomal protein S6 kinase alpha-1 (Homo sapiens) (UniProt Q15418); test: Inhibition of N-terminal his6-tagged recombinant human RSK1 (2 to end residues) expressed in baculovirus Sf21 insect cells at 10 uM relative to control
[15] = system: COLO 205; test: Antitumor activity against human COLO 205 cells xenografted in Nude mouse assessed as disorganized condense chromatin at 50 to 100 mg/kg, ip measured at 24 to 48 hrs by H and E staining based analysis; type: functional, organism-based; settings: dose 50-100 mg/kg, time 24-48 hrs
[16] = system: A2780; test: Antiproliferative activity against human A2780 cells assessed as of viable cell signal at minimum maximum cell growth incubated for 72 hrs by celltiter-glo assay relative to control; type: functional
[17] = system: SK-MEL-5; test: Antiproliferative activity against human SK-MEL-5 cells assessed as growth inhibition incubated for 72 hrs by celltiter-glo assay; type: functional
[18] = system: A549; test: Antiproliferative activity against human A549 cells assessed as of viable cell signal at minimum maximum cell growth incubated for 72 hrs by celltiter-glo assay relative to control; type: functional
[19] = system: Calu-1; test: Antiproliferative activity against human Calu-1 cells assessed as of viable cell signal at minimum maximum cell growth incubated for 72 hrs by celltiter-glo assay relative to control; type: functional
[20] = system: NCI-H82; test: Antiproliferative activity against human NCI-H82 cells assessed as of viable cell signal at minimum maximum cell growth incubated for 72 hrs by celltiter-glo assay relative to control; type: functional
[21] = system: T-24; test: Antiproliferative activity against human T24 cells assessed as growth inhibition incubated for 72 hrs by celltiter-glo assay; type: functional
[22] = system: PANC-08-13; test: Antiproliferative activity against human PANC-08-13 cells assessed as growth inhibition incubated for 72 hrs by celltiter-glo assay; type: functional
[23] = system: LNCaP; test: Antiproliferative activity against human LNCaP cells assessed as growth inhibition incubated for 72 hrs by celltiter-glo assay; type: functional
[24] = system: HCC1954; test: Antiproliferative activity against human HCC1954 cells assessed as growth inhibition incubated for 72 hrs by celltiter-glo assay; type: functional
[25] = system: NCI-H358; test: Antiproliferative activity against human NCI-H358 cells assessed as growth inhibition incubated for 72 hrs by celltiter-glo assay; type: functional
[26] = system: DLD-1; test: Antiproliferative activity against human DLD-1 cells assessed as growth inhibition incubated for 72 hrs by celltiter-glo assay; type: functional
[27] = system: A704; test: Antiproliferative activity against human A704 cells assessed as growth inhibition incubated for 72 hrs by celltiter-glo assay; type: functional
[28] = system: SJSA-1; test: Antiproliferative activity against human SJSA-1 cells assessed as of viable cell signal at minimum maximum cell growth incubated for 72 hrs by celltiter-glo assay relative to control; type: functional
[29] = system: HN5; test: Antiproliferative activity against human HN5 cells assessed as viable cell signal at maximum growth inhibition incubated for 72 hrs by celltiter-glo assay relative to control; type: functional
[30] = target: Serine/threonine-protein kinase D1 (Homo sapiens) (UniProt Q15139); test: Inhibition of recombinant human PKC-mu at 10 uM relative to control
[31] = system: NCI-H82; test: Antiproliferative activity against human NCI-H82 cells assessed as growth inhibition incubated for 72 hrs by celltiter-glo assay; type: functional
[32] = system: BT-474; test: Antiproliferative activity against human BT-474 cells assessed as viable cell signal at maximum growth inhibition incubated for 72 hrs by celltiter-glo assay relative to control; type: functional
[33] = system: U2OS; test: Induction of mitotic arrest in human U2OS cells expressing fused cyclin B1-GFP at > 250 nmol/L incubated for 48 hrs by image based analysis; type: functional, cell-based
[34] = system: SW-620; test: Antiproliferative activity against human SW620 cells assessed as growth inhibition incubated for 72 hrs by celltiter-glo assay; type: functional
[35] = system: NCI-N87; test: Antiproliferative activity against human NCI-N87 cells assessed as of viable cell signal at minimum maximum cell growth incubated for 72 hrs by celltiter-glo assay relative to control; type: functional
[36] = system: HT-1080; test: Antiproliferative activity against human HT-1080 cells assessed as of viable cell signal at minimum maximum cell growth incubated for 72 hrs by celltiter-glo assay relative to control; type: functional
[37] = system: LoVo; test: Antiproliferative activity against human LoVo cells assessed as of viable cell signal at minimum maximum cell growth incubated for 72 hrs by celltiter-glo assay relative to control; type: functional
[38] = system: MIA PaCa-2; test: Antiproliferative activity against human MIA PaCa-2 cells assessed as of viable cell signal at minimum maximum cell growth incubated for 72 hrs by celltiter-glo assay relative to control; type: functional
[39] = system: A-427; test: Antiproliferative activity against human A-427 cells assessed as growth inhibition incubated for 72 hrs by celltiter-glo assay; type: functional
[40] = system: NCI-N87; test: Antiproliferative activity against human NCI-N87 cells assessed as viable cell signal at maximum growth inhibition incubated for 72 hrs by celltiter-glo assay relative to control; type: functional

Ribosomal protein S6 kinase alpha-1 (Homo sapiens), sequence (Q15418 whole entry): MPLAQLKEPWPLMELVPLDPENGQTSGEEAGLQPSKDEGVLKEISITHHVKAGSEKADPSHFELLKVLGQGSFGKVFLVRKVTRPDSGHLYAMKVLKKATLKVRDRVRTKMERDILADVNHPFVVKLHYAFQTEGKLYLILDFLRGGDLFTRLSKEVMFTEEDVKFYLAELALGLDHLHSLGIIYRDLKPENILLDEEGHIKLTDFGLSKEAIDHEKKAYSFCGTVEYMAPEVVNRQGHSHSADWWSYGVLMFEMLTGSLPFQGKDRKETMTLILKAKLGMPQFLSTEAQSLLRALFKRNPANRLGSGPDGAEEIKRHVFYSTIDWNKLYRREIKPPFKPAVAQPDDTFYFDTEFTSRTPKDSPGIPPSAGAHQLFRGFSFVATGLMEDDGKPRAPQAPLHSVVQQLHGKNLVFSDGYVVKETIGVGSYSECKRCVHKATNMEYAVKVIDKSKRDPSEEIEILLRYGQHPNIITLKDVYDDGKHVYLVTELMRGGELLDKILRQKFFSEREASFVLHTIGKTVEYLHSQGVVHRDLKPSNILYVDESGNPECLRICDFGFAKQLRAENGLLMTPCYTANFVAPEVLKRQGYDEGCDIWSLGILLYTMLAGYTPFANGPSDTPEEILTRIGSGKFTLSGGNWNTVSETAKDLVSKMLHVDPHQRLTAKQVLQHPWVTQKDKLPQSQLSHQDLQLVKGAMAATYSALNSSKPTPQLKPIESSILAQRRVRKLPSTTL
Cyclin-dependent kinase 1/cyclin B1 (Homo sapiens), sequence (P06493 whole entry, looked up): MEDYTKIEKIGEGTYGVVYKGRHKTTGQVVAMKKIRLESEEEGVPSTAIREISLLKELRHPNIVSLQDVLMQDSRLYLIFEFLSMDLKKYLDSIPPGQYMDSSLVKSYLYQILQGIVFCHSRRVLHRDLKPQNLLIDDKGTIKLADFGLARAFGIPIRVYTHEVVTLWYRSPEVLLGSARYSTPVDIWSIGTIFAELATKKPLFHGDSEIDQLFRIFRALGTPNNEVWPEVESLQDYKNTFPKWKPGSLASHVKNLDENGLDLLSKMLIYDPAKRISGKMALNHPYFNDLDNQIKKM
Cyclin-dependent kinase 1/cyclin B1 (Homo sapiens), sequence (P14635 whole entry, looked up): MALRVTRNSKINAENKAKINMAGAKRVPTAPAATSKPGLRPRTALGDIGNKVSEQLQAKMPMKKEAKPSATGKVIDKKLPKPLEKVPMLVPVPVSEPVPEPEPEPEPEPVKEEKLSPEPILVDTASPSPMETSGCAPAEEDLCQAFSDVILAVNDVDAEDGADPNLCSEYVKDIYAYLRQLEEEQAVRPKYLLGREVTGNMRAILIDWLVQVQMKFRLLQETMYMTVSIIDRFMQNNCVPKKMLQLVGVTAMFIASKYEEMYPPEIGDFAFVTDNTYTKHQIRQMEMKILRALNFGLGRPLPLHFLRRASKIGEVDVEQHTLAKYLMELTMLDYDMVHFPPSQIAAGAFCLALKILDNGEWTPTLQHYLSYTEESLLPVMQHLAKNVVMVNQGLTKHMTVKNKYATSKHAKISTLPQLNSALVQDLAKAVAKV
Serine/threonine-protein kinase D1 (Homo sapiens), sequence (Q15139 whole entry): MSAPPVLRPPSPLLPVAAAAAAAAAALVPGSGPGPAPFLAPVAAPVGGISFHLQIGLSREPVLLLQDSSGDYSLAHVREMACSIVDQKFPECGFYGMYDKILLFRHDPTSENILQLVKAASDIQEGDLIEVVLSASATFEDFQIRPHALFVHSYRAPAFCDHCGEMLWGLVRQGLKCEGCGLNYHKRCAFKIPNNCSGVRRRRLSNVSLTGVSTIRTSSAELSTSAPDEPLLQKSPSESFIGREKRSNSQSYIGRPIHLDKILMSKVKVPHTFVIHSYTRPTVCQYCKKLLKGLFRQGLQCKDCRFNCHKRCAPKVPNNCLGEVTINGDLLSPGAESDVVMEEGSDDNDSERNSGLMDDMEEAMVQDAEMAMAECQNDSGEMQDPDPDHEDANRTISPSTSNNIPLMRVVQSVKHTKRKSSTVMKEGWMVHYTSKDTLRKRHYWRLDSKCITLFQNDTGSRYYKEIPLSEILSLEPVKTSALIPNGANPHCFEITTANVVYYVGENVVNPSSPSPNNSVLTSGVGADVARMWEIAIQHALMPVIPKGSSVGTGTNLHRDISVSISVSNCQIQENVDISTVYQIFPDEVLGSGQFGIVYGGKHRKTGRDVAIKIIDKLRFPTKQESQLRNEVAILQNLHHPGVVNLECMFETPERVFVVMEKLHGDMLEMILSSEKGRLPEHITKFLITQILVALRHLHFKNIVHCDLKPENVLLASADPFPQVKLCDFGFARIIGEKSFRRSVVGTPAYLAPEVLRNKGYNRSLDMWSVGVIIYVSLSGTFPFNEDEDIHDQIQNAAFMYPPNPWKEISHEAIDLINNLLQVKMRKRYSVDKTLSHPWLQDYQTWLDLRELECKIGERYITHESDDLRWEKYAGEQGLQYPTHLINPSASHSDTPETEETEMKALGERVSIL

SMILES: C[C@@H](Oc1cc(-n2cnc3ccc(CN4CCN(C)CC4)cc32)sc1C(N)=O)c1ccccc1C(F)(F)F [GSK-461364]
- Emin [1]: 192%
- Emax [2]: 489%
- Emin [3]: 205%
- Activity [4]: Dose-Dependent Effect
- Emax [5]: 353%
- Emax [6]: 708%
- Emin [7]: 5.1%
- viability at 0.25 µM [8]: 200%
- Emax [9]: 371%
- Activity [10]: Active
- Activity [11]: inactive
- inhibition [12]: 66%
- Emax [13]: 262%
- inhibition [14]: 72%
- Activity [15]: Active
- Emin [16]: 68.5%
- GI50 [17]: 28.4 nM
- Emin [18]: 124.1%
- Emin [19]: 179.8%
- Emin [20]: 22.8%
- GI50 [21]: 42.3 nM
- GI50 [22]: 18.9 nM
- GI50 [23]: 15.3 nM
- GI50 [24]: 14.1 nM
- GI50 [25]: 13.4 nM
- GI50 [26]: 48.9 nM
- GI50 [27]: 183 nM
- Emin [28]: 123.8%
- Emax [29]: 812%
- inhibition [30]: 53%
- GI50 [31]: 4.85 nM
- Emax [32]: 226%
- Activity [33]: Active
- GI50 [34]: 6.6 nM
- Emin [35]: 321.5%
- Emin [36]: 62.5%
- Emin [37]: 23.4%
- Emin [38]: 100.2%
- GI50 [39]: 22.8 nM
- Emax [40]: 776%
